These results are taken from patent publication US20090092603A1, “EARLY DIAGNOSIS AND TREATMENT OF DRUG RESISTANCE IN MUC1-POSITIVE CANCER” (priority 2007, published 2009).

The subject of this data set is HERCEPTIN-resistant BTRes1 cells. To be noted: drug with control Fab, compared to BT474.

Where two headings read alike, the source gives them in different places.

Regarding `O=P1(N(CCCl)CCCl)NCCCO1` (centres unmarked) [cyclophosphamide], the “cytotoxic effect of the drug in cells that acquired HERCEPTIN® resistance” value is given as “acquired resistance”. For the same molecule, where the note is “listed as Cyclophosphamide”, the “cytotoxic effect of the drug in cells that acquired HERCEPTIN® resistance” value is “lost”.
